The values below come from patent US20250115558A1, “PYRIDAZINE DERIVATIVES AND RELATED USES” (NodThera Limited, priority 2023, published 2025).

The structures appear in SMILES notation. A value given as a limit tells only on which side of the number the result lay.

In assay [1] the test system is IL-1β release upon NLRP3 activation in peripheral blood mononuclear cells (PBMC). The experiment in a line: PBMC IC50 Determination Assay. Type of assay: cell-based. The settings on record: Homo sapiens; inhibition of IL-1β release; LPS-primed PBMC stimulated with ATP or nigericin. In short, it runs like this:
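Human PBMC from buffy coats primed 3 h with LPS (1 μg/mL in protocol B), then compound for 30 min, then ATP (5 mM) or nigericin (10 μM; protocol A only) for 1 h. IL-1β released into medium measured by ELISA at 450 nm (protocol A) or HTRF at […] (protocol B).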

A further assay relates to THP-1. As to the kind of experiment: THP-1 IC50 assay. The class given is cell-based. The conditions noted are these: Homo sapiens; THP-1 cells.

For the molecule `Cc1cc(C(F)(F)F)cc(O)c1-c1ccc(CNC2CC(=O)N(C)C2=O)nn1` (stereo not shown) [Compound 114], the values for the IC50 (in assay [1]; in the assay on THP-1) were less than 500 nM and 500 to 1000 nM, respectively.
The corresponding values for `COCCNCc1ccc(-c2c(C)cc(C(F)(F)F)cc2O)nn1` [Compound 115] are 1000 to 3000 nM and 1000 to 3000 nM.
For `Cc1cc(C(F)(F)F)cc(O)c1-c1ccc(CNCCN(C)C)nn1` [Compound 116], the IC50 (in assay [1]; with THP-1) was 3000 to 10000 nM in each case.
Regarding `Cc1cc(C(F)(F)F)cc(O)c1-c1ccc(CNCC(C)(C)O)nn1` [Compound 117], the figures for the IC50 (in assay [1]; in the assay on THP-1) were 500 to 1000 nM and 1000 to 3000 nM, respectively.
`Cc1cc(C(F)(F)F)cc(O)c1-c1ccc(CNCCC(C)(C)O)nn1` [Compound 118]: the half-inhibitory concentration (IC50) in assay [1] lay in the range of 1000 to 3000 nM; in the assay with THP-1, 3000 to 10000 nM.
Turning to `Cc1cc(C(F)(F)F)cc(O)c1-c1ccc(Cn2ccccc2=N)nn1` [Compound 119], the IC50 (in assay [1]; in the assay on THP-1) was 500 to 1000 nM each time.
In the case of `Cc1cc(C(F)(F)F)cc(O)c1-c1ccc(Cn2ccc(=N)nc2)nn1` [Compound 120], the IC50 in assay [1] was no less than 10000 nM; in the assay on THP-1 it was 3000 to 10000 nM.
The corresponding values for `Cc1cc(C(F)(F)F)cc(O)c1-c1ccc(Cn2ccc(=N)cn2)nn1` [Compound 121] are no less than 10000 nM and 3000 to 10000 nM.
The like results for `Cc1cc(C(F)(F)F)cc(O)c1-c1ccc(CNc2ccn(C)n2)nn1` [Compound 122] were, in that order, less than 500 nM and 500 to 1000 nM.
As to `Cc1cc(C(F)(F)F)cc(O)c1-c1ccc(Cn2ccn(C)c2=N)nn1` [Compound 123], the half-maximal inhibitory concentration (IC50) fell in the range of 1000 to 3000 nM in assay [1] and 500 to 1000 nM in the assay with THP-1.
The like results for `Cc1cc(C(F)(F)F)cc(O)c1-c1ccc(CNc2cnoc2)nn1` [Compound 124] were, in that order, less than 500 nM and less than 500 nM.
The like results for `Cc1cn(Cc2ccc(-c3c(C)cc(C(F)(F)F)cc3O)nn2)c(=N)s1` [Compound 125] were, in that order, 1000 to 3000 nM and 1000 to 3000 nM.
The corresponding values for `Cc1cc(C(F)(F)F)cc(O)c1-c1ccc(CNCc2ccnn2C)nn1` [Compound 126] are 1000 to 3000 nM and 1000 to 3000 nM.
Regarding `Cc1cc(C(F)(F)F)cc(O)c1-c1ccc(CNCc2ccn(C)n2)nn1` [Compound 127], the figures for the 50% inhibitory concentration (IC50) (in assay [1]; with THP-1) were 500 to 1000 nM and 1000 to 3000 nM, respectively.
Turning to `Cc1cc(C(F)(F)F)cc(O)c1-c1ccc(CNCc2cnn(C)c2)nn1` [Compound 128], the IC50 (in assay [1]; in the assay with THP-1) was 1000 to 3000 nM each time.
Turning to `Cc1cc(C(F)(F)F)cc(O)c1-c1ccc(CN(C)C2CCOCC2)nn1` [Compound 129], the IC50 (in assay [1]; with THP-1) was 1000 to 3000 nM throughout.
On to `Cc1cc(C(F)(F)F)cc(O)c1-c1ccc(CN2CCOCC2)nn1` [Compound 130], for which the IC50 (in assay [1]; in the assay with THP-1) was 500 to 1000 nM each time.
For the molecule `Cc1cc(C(F)(F)F)cc(O)c1-c1ccc(CN2CCN(C)CC2)nn1` [Compound 131], the values for the IC50 (in assay [1]; in the assay on THP-1) were 1000 to 3000 nM and 3000 to 10000 nM, respectively.
The like results for `Cc1cc(C(F)(F)F)cc(O)c1-c1ccc(CN2CCN(C)C(=O)C2)nn1` [Compound 132] were, in that order, 1000 to 3000 nM and 1000 to 3000 nM.
The corresponding values for `Cc1cc(C(F)(F)F)cc(O)c1-c1ccc(CN2CCCC2)nn1` [Compound 133] are less than 500 nM and 500 to 1000 nM.
As to `Cc1cc(C(F)(F)F)cc(O)c1-c1ccc(CN2CCCC2=O)nn1` [Compound 134], the IC50 (in assay [1]; with THP-1) was less than 500 nM throughout.
As to `Cc1cc(C(F)(F)F)cc(O)c1-c1ccc(CN2CCCCC2)nn1` [Compound 135], the IC50 (in assay [1]; in the assay on THP-1) was less than 500 nM each time.
Consider `Cc1cc(C(F)(F)F)cc(O)c1-c1ccc(CNC2CCSCC2)nn1` [Compound 136], for which the IC50 (in assay [1]; with THP-1) was 500 to 1000 nM each time.
Turning to `Cc1cc(C(F)(F)F)cc(O)c1-c1ccc(CNC2CCS(=O)(=O)CC2)nn1` [Compound 137], the IC50 (in assay [1]; in the assay on THP-1) was 1000 to 3000 nM throughout.
Regarding `Cc1cc(C(F)(F)F)cc(O)c1-c1ccc(CNCc2ccccc2)nn1` [Compound 138], the results for the IC50 (in assay [1]; in the assay on THP-1) were 500 to 1000 nM and 1000 to 3000 nM, respectively.
The corresponding values for `Cc1cc(C(F)(F)F)cc(O)c1-c1ccc(CNC2CCOC(C)C2)nn1` (stereo not shown) [Compound 139] are 500 to 1000 nM and 1000 to 3000 nM.
On to `COC1CCC(NCc2ccc(-c3c(C)cc(C(F)(F)F)cc3O)nn2)CC1` (stereo not shown) [Compound 140], for which the IC50 in assay [1] is less than 500 nM; in the assay on THP-1, 500 to 1000 nM.
Regarding `Cc1cc(C(F)(F)F)cc(O)c1-c1ccc(CNCc2cccs2)nn1` [Compound 141], the IC50 was less than 500 nM in assay [1] and 1000 to 3000 nM in the assay with THP-1.
The corresponding values for `CC(=O)N1CCC(NCc2ccc(-c3c(C)cc(C(F)(F)F)cc3O)nn2)CC1` [Compound 142] are less than 500 nM and 500 to 1000 nM.
The like results for `Cc1cc(C(F)(F)F)cc(O)c1-c1ccc(CNCCN2CCOCC2)nn1` [Compound 144] were, in that order, 1000 to 3000 nM and 3000 to 10000 nM.
For `Cc1cc(C(F)(F)F)cc(O)c1-c1ccc(C[n+]2cccc(N)c2)nn1` [Compound 145], the IC50 lay within 3000 to 10000 nM in assay [1] and 1000 to 3000 nM in the assay with THP-1.
With `Cc1cc(C(F)(F)F)cc(O)c1-c1ccc(CNc2cnccn2)nn1` [Compound 146], the IC50 (in assay [1]; with THP-1) was 500 to 1000 nM throughout.
On to `Cc1cc(NCc2ccc(-c3c(C)cc(C(F)(F)F)cc3O)nn2)on1` [Compound 149], for which the IC50 (in assay [1]; with THP-1) was 1000 to 3000 nM in each case.
Consider `Cc1cc(C(F)(F)F)cc(O)c1-c1ccc(CNc2cnsc2)nn1` [Compound 150], for which the IC50 (in assay [1]; in the assay on THP-1) was less than 500 nM each time.
Take `Cc1cc(C(F)(F)F)cc(O)c1-c1ccc(CN2CCCCC2=O)nn1` [Compound 151]: the IC50 (in assay [1]; with THP-1) was less than 500 nM throughout.
Regarding `Cc1cc(C(F)(F)F)cc(O)c1-c1ccc(CN[C@H]2CC[C@](C)(O)CC2)nn1` [Compound 152], the IC50 (in assay [1]; with THP-1) was 1000 to 3000 nM each time.
On to `Cc1cc(C(F)(F)F)cc(O)c1-c1ccc(CN[C@H]2CC[C@@](C)(O)CC2)nn1` [Compound 153], for which the IC50 (in assay [1]; in the assay with THP-1) was 1000 to 3000 nM throughout.
`Cc1cc(C(F)(F)F)cc(O)c1-c1ccc(CNC2CN3CCC2CC3)nn1` (stereo not shown) [Compound 154]: the IC50 (in assay [1]; in the assay with THP-1) was no less than 10000 nM throughout.
